The values that follow are results of earlier work, collected in US20250281528A1, “GRAPHENE OXIDE-CATIONIC SILVER NANOCOMPOSITES AND THEIR USE AS BROAD-SPECTRUM ANTIMICROBIAL AGENTS” (priority 2020, published 2025).

What all share (details): literature values, refs in Table 6 footnotes
In series [1] the test system is Salmonella typhi.
Series [2] deals with Candida albicans.
Series [3] has as its system Streptococcus pyogenes.
Series [4] concerns Vibrio cholerae.

With `O=[N+]([O-])[O-].[Ag+]` [AgNO3, Silver Nitrate], the MIC in series [1] is on record as 110 ^c μg/mL; in series [2], 4.9 ^f μg/mL; in series [3], 80 ^c μg/mL; in series [4], 70 ^c μg/mL.
